These compounds were tested against T1, human PTH1 receptor (Homo sapiens, UniProt Q03431) (assay: In vitro cAMP signal activity in HKRK-B7 cells (LLC-PK1 cells overexpressing the human PTH1 receptor)). Conditions: HKRK-B7 cells; compound at 1×10^−3 M; […]; 0.1 µM.
T1 sequence (Q03431 27-593): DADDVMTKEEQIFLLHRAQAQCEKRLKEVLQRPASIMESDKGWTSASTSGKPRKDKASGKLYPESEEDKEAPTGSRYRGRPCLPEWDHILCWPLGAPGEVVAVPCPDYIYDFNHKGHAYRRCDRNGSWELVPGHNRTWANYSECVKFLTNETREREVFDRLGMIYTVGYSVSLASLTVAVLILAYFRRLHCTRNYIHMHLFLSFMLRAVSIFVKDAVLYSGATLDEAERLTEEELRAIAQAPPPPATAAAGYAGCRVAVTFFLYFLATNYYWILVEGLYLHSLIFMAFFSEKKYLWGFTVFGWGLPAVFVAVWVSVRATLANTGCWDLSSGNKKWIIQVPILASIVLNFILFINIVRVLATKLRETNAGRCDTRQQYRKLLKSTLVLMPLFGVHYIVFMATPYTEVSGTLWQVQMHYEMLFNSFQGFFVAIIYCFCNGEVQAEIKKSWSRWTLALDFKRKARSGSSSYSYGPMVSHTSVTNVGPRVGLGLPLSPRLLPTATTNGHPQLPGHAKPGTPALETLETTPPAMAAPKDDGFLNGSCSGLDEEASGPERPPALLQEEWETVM
Format: cell-based
For `CC(=O)N1CCC(N(C(C)=O)c2ccc(/C=C/S(=O)(=O)N3CCC4(CC3)N=C(c3cccc(OC(F)(F)F)c3)NC4=O)c(C)c2)CC1` [Compound 1294, N-(1-Acetyl-piperidin-4-yl)-N-(3-methyl-4-{(E)-2-[4-oxo-2-(3-trifluoromethoxy-phenyl)-1,3,8-triaza-spiro[4.5]dec-1-ene-8-sulfonyl]-vinyl}-phenyl)-acetamide], the “cAMP production activity (%)” value was 76%.

Same assay, conditions: HKRK-B7 cells; compound at 1×10^−3 M; cAMP produced as percentage of that produced by hPTH(1-34) at 100 nM
For `Cc1cc(C(=O)N2CCC(C)(O)CC2)cc(C)c1/C=C/S(=O)(=O)N1CCC2(CC1)N=C(c1ccc(F)c(Cl)c1)NC2=O` [Compound 1186, 2-(3-chloro-4-fluoro-phenyl)-8-{(E)-2-[4-(4-hydroxy-4-methyl-piperidine-1-carbonyl)-2,6-dimethyl-phenyl]-ethenesulfonyl}-1,3,8-triaza-spiro[4.5]dec-1-en-4-one], the “cAMP production activity (%)” value was 110%.
`Cc1c(CCS(=O)(=O)N2CCC3(CC2)N=C(c2cccc(OC(F)(F)F)c2)NC3=O)cccc1C(=O)N(C)C` [Compound 409, 2,N,N-Trimethyl-3-{2-[4-oxo-2-(3-trifluoromethoxy-phenyl)-1,3,8-triaza-spiro[4.5]dec-1-ene-8-sulfonyl]-ethyl}-benzamide] was tested, and the “cAMP production activity (%)” value was 55%.
`Cc1cc(N(C)C(N)=O)cc(C)c1CCS(=O)(=O)N1CCC2(CC1)N=C(C1CCC(C)C1)NC2=O` (stereo not drawn) [Compound 1055, 1-(3,5-dimethyl-4-{2-[2-(3-methyl-cyclopentyl)-4-oxo-1,3,8-triaza-spiro[4.5]dec-1-ene-8-sulfonyl]-ethyl}-phenyl)-1-methyl-urea] was tested, and the “cAMP production activity (%)” value was 84%.
`COc1ccccc1/C=C/S(=O)(=O)N1CCC2(CC1)N=C(C1CCCCC1)NC2=O` [Compound 181, 2-cyclohexyl-8-[(E)-2-(2-methoxy-phenyl)-ethenesulfonyl]-1,3,8-triaza-spiro[4.5]dec-1-en-4-one] was tested, and the “cAMP production activity (%)” value was 19%.
`Cc1cc(C(=O)N2CCC[C@@H]2C(N)=O)ccc1CCS(=O)(=O)N1CCC2(CC1)N=C(c1cccc(C(F)(F)F)c1)NC2=O` [Compound 369, (R)-1-(3-methyl-4-{2-[4-oxo-2-(3-trifluoromethyl-phenyl)-1,3,8-triaza-spiro[4.5]dec-1-ene-8-sulfonyl]-ethyl}-benzoyl)-pyrrolidine-2-carboxylic acid amide] was tested, and the “cAMP production activity (%)” value was 43%.
`O=C1NC(C2CCCCC2)=NC12CCN(S(=O)(=O)/C=C/c1cccc3c1ccn3C[C@H](O)CO)CC2` [Compound 191, 2-cyclohexyl-8-{(E)-2-[1-((S)-2,3-dihydroxy-propyl)-1H-indol-4-yl]-ethenesulfonyl}-1,3,8-triaza-spiro[4.5]dec-1-en-4-one] was tested, and the “cAMP production activity (%)” value was 57%.
For `O=C(N1CCCCC1)N1CCCC(C2=NC3(CCN(S(=O)(=O)c4cccc(Cl)c4)CC3)C(=O)N2)C1` (stereo not drawn) [Compound 456, 8-(3-Chloro-benzenesulfonyl)-2-[1-(piperidine-1-carbonyl)-piperidin-3-yl]-1,3,8-triaza-spiro[4.5]dec-1-en-4-one], the “cAMP production activity (%)” value was 28%.
With `CC(=O)Nc1ccc(CCS(=O)(=O)N2CCC3(CC2)N=C([C@H]2CC[C@@H](C/C=C/F)CC2)NC3=O)c(C)c1` [Compound 1070, N-[4-(2-{2-[4-((E)-3-fluoro-allyl)-cyclohexyl]-4-oxo-1,3,8-triaza-spiro[4.5]dec-1-ene-8-sulfonyl}-ethyl)-3-methyl-phenyl]-acetamide] the “cAMP production activity (%)” value was 69%.
For `O=C1NC(C2CCCCC2)=NC12CCN(S(=O)(=O)CCc1cccc3ncccc13)CC2` [Compound 648, 2-cyclohexyl-8-(2-quinolin-5-yl-ethanesulfonyl)-1,3,8-triaza-spiro[4.5]dec-1-en-4-one], the “cAMP production activity (%)” value was 61%.
With `Cc1cc(C(=O)N(C)C)ccc1CCS(=O)(=O)N1CCC2(CC1)N=C(c1cscn1)NC2=O` [Compound 121, 3,N,N-trimethyl-4-[2-(4-oxo-2-thiazol-4-yl-1,3,8-triaza-spiro[4.5]dec-1-ene-8-sulfonyl)-ethyl]-benzamide] the “cAMP production activity (%)” value was 5.8%.
For `Cc1cc(N(C)C(=O)OCCO)cc(C)c1/C=C/S(=O)(=O)N1CCC2(CC1)N=C(c1cccc(OC(F)(F)F)c1)NC2=O` [Compound 1012, (3,5-Dimethyl-4-{(E)-2-[4-oxo-2-(3-trifluoromethoxy-phenyl)-1,3,8-triaza-spiro[4.5]dec-1-ene-8-sulfonyl]-vinyl}-phenyl)-methyl-carbamic acid 2-hydroxy-ethyl ester], the “cAMP production activity (%)” value was 87%.
`Cc1cc(CN2C(=O)NC(C)(C)C2=O)cc(C)c1CCS(=O)(=O)N1CCC2(CC1)N=C(C1CCC(CCC(F)(F)F)CC1)NC2=O` (stereo not drawn) [Compound 775, 3-[3,5-dimethyl-4-(2-{4-oxo-2-[4-(3,3,3-trifluoro-propyl)-cyclohexyl]-1,3,8-triaza-spiro[4.5]dec-1-ene-8-sulfonyl}-ethyl)-benzyl]-5,5-dimethyl-imidazolidine-2,4-dione] was tested, and the “cAMP production activity (%)” value was 70%.
With `CC(=O)Nc1ccc(CCS(=O)(=O)N2CCC3(CC2)N=C(C2CCC(CC(F)(F)C(F)(F)F)CC2)NC3=O)c(C)c1` (stereo not drawn) [Compound 1080, N-[3-Methyl-4-(2-{4-oxo-2-[4-(2,2,3,3,3-pentafluoro-propyl)-cyclohexyl]-1,3,8-triaza-spiro[4.5]dec-1-ene-8-sulfonyl}-ethyl)-phenyl]-acetamide] the “cAMP production activity (%)” value was 81%.
`Cc1cc(S(C)(=O)=O)ccc1/C=C/S(=O)(=O)N1CCC2(CC1)N=C(c1cccc(C(F)(F)F)c1)NC2=O` [Compound 593, 8-[(E)-2-(4-methanesulfonyl-2-methyl-phenyl)-ethenesulfonyl]-2-(3-trifluoromethyl-phenyl)-1,3,8-triaza-spiro[4.5]dec-1-en-4-one] was tested, and the “cAMP production activity (%)” value was 28%.
In the case of `Cc1cc(N2C(=O)CNC2=O)ccc1CCS(=O)(=O)N1CCC2(CC1)N=C(C1CCC(C)CC1)NC2=O` (stereo not drawn) [Compound 881, 3-(3-methyl-4-{2-[2-(4-methyl-cyclohexyl)-4-oxo-1,3,8-triaza-spiro[4.5]dec-1-ene-8-sulfonyl]-ethyl}-phenyl)-imidazolidine-2,4-dione], the “cAMP production activity (%)” value is reported as 48%.
With `Cc1cc(C(=O)N2CCC(C)(O)CC2)cc(C)c1/C=C/[S@TB4](=O)(=O)N1CCC2(CC1)N=C(c1ccc(F)c(OC(F)(F)F)c1)NC2=O` [Compound 1099, 2-(4-fluoro-3-trifluoromethoxy-phenyl)-8-{(E)-2-[4-(4-hydroxy-4-methyl-piperidine-1-carbonyl)-2,6-dimethyl-phenyl]-ethenesulfonyl}-1,3,8-triaza-spiro[4.5]dec-1-en-4-one] the “cAMP production activity (%)” value was 91%.
`Cc1cc(N2CCN(CCO)C2=O)ccc1CCS(=O)(=O)N1CCC2(CC1)N=C(c1cccc(C(F)(F)F)c1)NC2=O` [Compound 674, 8-(2-{4-[3-(2-Hydroxy-ethyl)-2-oxo-imidazolidin-1-yl]-2-methyl-phenyl}-ethanesulfonyl)-2-(3-trifluoromethyl-phenyl)-1,3,8-triaza-spiro[4.5]dec-1-en-4-one] was tested, and the “cAMP production activity (%)” value was 68%.
In the case of `Cc1cc(N2C[C@H](O)CC2=O)ccc1CCS(=O)(=O)N1CCC2(CC1)N=C(c1cccc(C(F)(F)F)c1)NC2=O` [Compound 297, 8-{2-[4-((R)-4-hydroxy-2-oxo-pyrrolidin-1-yl)-2-methyl-phenyl]-ethanesulfonyl}-2-(3-trifluoromethyl-phenyl)-1,3,8-triaza-spiro[4.5]dec-1-en-4-one], the “cAMP production activity (%)” value is reported as 91%.
For `Cc1cc(C(=O)N2CCCC2)ccc1/C=C/S(=O)(=O)N1CCC2(CC1)N=C(c1ccc(F)c(C(F)(F)F)c1)NC2=O` [Compound 619, 2-(4-Fluoro-3-trifluoromethyl-phenyl)-8-{(E)-2-[2-methyl-4-(pyrrolidine-1-carbonyl)-phenyl]-ethenesulfonyl}-1,3,8-triaza-spiro[4.5]dec-1-en-4-one], the “cAMP production activity (%)” value was 61%.
In the case of `Cc1cc(S(=O)(=O)NC2CCN(Cc3ccccc3)CC2)ccc1CCS(=O)(=O)N1CCC2(CC1)N=C(c1cccc(OC(F)(F)F)c1)NC2=O` [Compound 848, N-(1-benzyl-piperidin-4-yl)-3-methyl-4-{2-[4-oxo-2-(3-trifluoromethoxy-phenyl)-1,3,8-triaza-spiro[4.5]dec-1-ene-8-sulfonyl]-ethyl}-benzenesulfonamide], the “cAMP production activity (%)” value is reported as 77%.
`Cc1cc(N(C)C(N)=O)cc(C)c1CCS(=O)(=O)N1CCC2(CC1)N=C(C1CCC(CC=C(F)F)CC1)NC2=O` (stereo not drawn) [Compound 940, 1-[4-(2-{2-[4-(3,3-difluoro-allyl)-cyclohexyl]-4-oxo-1,3,8-triaza-spiro[4.5]dec-1-ene-8-sulfonyl}-ethyl)-3,5-dimethyl-phenyl]-1-methyl-urea] was tested, and the “cAMP production activity (%)” value was 86%.
For `Cc1cc(OC[C@H](O)CO)cc(C)c1/C=C/S(=O)(=O)N1CCC2(CC1)N=C(c1cccc(OCCCC(F)(F)C(F)(F)F)c1)NC2=O` [Compound 1103, 8-{(E)-2-[4-((R)-2,3-Dihydroxy-propoxy)-2,6-dimethyl-phenyl]-ethenesulfonyl}-2-[3-(4,4,5,5,5-pentafluoro-pentyloxy)-phenyl]-1,3,8-triaza-spiro[4.5]dec-1-en-4-one], the “cAMP production activity (%)” value was 5.4%.
For `Cc1cc(C(=O)N2CCC(C)(O)CC2)cc(C)c1/C=C/S(=O)(=O)N1CCC2(CC1)N=C(c1ccc(Cl)c(Cl)c1)NC2=O` [Compound 1185, 2-(3,4-Dichloro-phenyl)-8-{(E)-2-[4-(4-hydroxy-4-methyl-piperidine-1-carbonyl)-2,6-dimethyl-phenyl]-ethenesulfonyl}-1,3,8-triaza-spiro[4.5]dec-1-en-4-one], the “cAMP production activity (%)” value was 102%.
